US20250382289A1, “PYRAZOLOPYRIDINE DERIVATIVE AND APPLICATION THEREOF IN MEDICINE” (XIZANG HAISCO PHARMACEUTICAL CO., LTD., priority 2022, published 2025)
Where two headings read alike, the source gives them in different places.

Key:
[1] = target: USP1/UAF1 (Homo sapiens (Human), UniProt O94782); assay: Inhibitory activity on USP1/UAF1 enzymology (ubiquitin rhodamine 110 substrate); assay type: biochemical; conditions: 0.5 nM USP1/UAF1, 500 nM ubiquitin rhodamine 110
Protocol: Ubiquitin rhodamine 110 was used as a substrate to detect the activity of the deubiquitinating enzyme USP1/UAF1 after drug treatment. The total test system was 20 μl, and the test buffer comprises 50 mM Tris-HCl (pH 7.8), 0.5 mM EDTA, 0.01% Bovine Serum Albumin, 1 mM DTT, and 0.01% Tween-20. At the beginning of the experiment, 0.5 nM USP1/UAF1 (Bio-Techne, E-568-050) protein was added to a 384-well plate (PerkinElmer, 6008269), and the test compound diluted in a gradient was then added. After incubation at room temperature for 10 min, 500 nM ubiquitin rhodamine 110 (Bio-Techne, U-555-050) was added, and the mixture was incubated at room temperature for 20 min. Enspire™ Multilabel Reader microplate reader (PerkinElmer) was used for detection at excitation light of 485 nm/emission light of 535 nm. The IC50 value was calculated using GraphPad Prism software.

[2] = system: MDA-MB-436 cells; assay: Clone formation test of MDA-MB-436 cells; assay type: cell-based; conditions: 14 days, crystal violet, OD 570 nm, read-out: IC50 (nM), inhibitory activity on MDA-MB-436 cell clones
Protocol: In this experiment, MDA-MB-436 cells were treated by adding a test compound to detect the ability of cell clone formation. At the beginning of the experiment, MDA-MB-436 cells (ATCC, HTB-130) were added to a 96-well plate (Corning, 3599), with 500 cells per well, and they were subjected to adherent culture overnight. The next day, the compound diluted in a gradient was added, and culture was continued in a […] incubator at 37° C. On the 7th day, the old culture medium was discarded, and the test compound diluted in a gradient was added again. At the 14th day, the 96-well plate was taken out, the culture liquid was discarded, and cell clones were detected by Crystal violet Assay kit. PHERAstar FSX microplate reader (BMG LABTECH) was used for detection of OD at 570 nm. The IC50 value was calculated using GraphPad Prism software.

[3] = Pharmacokinetic test in mice; assay type: in vivo, ICR mice; conditions: plasma, i.g. 10 mg/kg
Protocol: Experimental animals: Male ICR mice, 25-30 g, were purchased from Chengdu Ddossy Experimental Animals Co., Ltd.
Experimental design: On the day of the experiment, the ICR mice were randomly grouped according to their body weights. The animals were fasted with water available for 12 to 14 h one day before the administration, and were fed 4 h after the administration.
Before and after the administration, blood was taken from the orbit of the animals at specified time points and placed in an EDTAK2 centrifuge tube. The blood was centrifuged at 5000 rpm and 4° C. for 10 min to collect plasma. The blood collection time points for the intravenous group and intragastric administration group were: 0, 5 min, 15 min, 30 min, 1 h, 2 h, 4 h, 7 h, and 24 h. Before analysis and detection, all samples were stored below −60° C. The samples were analyzed quantitatively by LC-MS/MS.

[4] = Pharmacokinetic test in beagle dogs; assay type: in vivo; conditions: i.g. 5 mg/kg
Protocol: Experimental objective: a single dose of test compounds was administered to beagle dogs intravenously and intragastrically, and the concentrations of the test compounds in plasma of the beagle dogs were measured to evaluate pharmacokinetic characteristics of the test compounds in the beagle dogs.
Experimental animals: male beagle dogs, about 8-11 kg, were purchased from Beijing Marshall Biotechnology Co., Ltd.
Experimental method: On the day of the experiment, the beagle dogs were randomly grouped according to their body weights. The animals were fasted but with water available for 14 to 18 hours one day before administration, and were fed 4 hours after administration. The administration was performed based on the information in the following table.
Vehicle for intravenous administration: 5% DMA+5% Solutol+90% Saline; Vehicle for intragastric administration: 0.5% MC
(DMA: dimethylacetamide; Solutol: polyethylene glycol-60-hydroxystearate; Saline: physiological saline; MC: Methylcellulose solution)
Sampling: Before and after the administration, blood was taken from the jugular veins or limb veins, and placed in an EDTAK2 centrifuge tube. Centrifugation was performed at 5000 rpm at 4° C. for 10 min, and plasma was collected.
Time points for blood collection: 0, 5 min, 15 min, 30 min, 1 h, 2 h, 4 h, 6 h, 8 h, 10 h, 12 h, 24 h, 48 h, and 72 h. Before analysis and detection, all the samples were stored at −60° C. or lower. The samples were analyzed quantitatively by LC-MS/MS.

[5] = Homo sapiens, MDA-MB-436, 336 h

Chain of USP1/UAF1 (O94782 whole entry): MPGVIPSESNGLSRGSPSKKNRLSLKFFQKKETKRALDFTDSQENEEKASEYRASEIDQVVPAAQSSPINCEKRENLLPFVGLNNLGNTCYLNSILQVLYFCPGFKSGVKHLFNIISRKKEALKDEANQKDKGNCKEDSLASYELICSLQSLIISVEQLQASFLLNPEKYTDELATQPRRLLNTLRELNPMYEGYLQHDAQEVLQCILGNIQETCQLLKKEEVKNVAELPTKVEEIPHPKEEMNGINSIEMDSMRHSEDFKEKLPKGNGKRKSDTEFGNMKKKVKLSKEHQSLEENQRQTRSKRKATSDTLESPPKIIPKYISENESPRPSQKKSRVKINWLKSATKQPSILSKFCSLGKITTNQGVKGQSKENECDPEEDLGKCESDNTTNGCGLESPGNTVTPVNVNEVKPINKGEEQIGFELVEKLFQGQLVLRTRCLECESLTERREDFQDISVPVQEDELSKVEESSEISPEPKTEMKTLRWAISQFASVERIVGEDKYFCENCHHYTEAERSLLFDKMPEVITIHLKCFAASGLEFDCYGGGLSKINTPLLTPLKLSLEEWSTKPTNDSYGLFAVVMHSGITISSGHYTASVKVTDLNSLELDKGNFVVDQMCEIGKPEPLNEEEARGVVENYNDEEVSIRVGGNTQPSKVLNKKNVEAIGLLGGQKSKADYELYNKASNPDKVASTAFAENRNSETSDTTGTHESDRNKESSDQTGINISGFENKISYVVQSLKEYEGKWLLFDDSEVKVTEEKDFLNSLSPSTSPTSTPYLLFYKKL
Chain of USP1/UAF1 (Q8TAF3 whole entry partner): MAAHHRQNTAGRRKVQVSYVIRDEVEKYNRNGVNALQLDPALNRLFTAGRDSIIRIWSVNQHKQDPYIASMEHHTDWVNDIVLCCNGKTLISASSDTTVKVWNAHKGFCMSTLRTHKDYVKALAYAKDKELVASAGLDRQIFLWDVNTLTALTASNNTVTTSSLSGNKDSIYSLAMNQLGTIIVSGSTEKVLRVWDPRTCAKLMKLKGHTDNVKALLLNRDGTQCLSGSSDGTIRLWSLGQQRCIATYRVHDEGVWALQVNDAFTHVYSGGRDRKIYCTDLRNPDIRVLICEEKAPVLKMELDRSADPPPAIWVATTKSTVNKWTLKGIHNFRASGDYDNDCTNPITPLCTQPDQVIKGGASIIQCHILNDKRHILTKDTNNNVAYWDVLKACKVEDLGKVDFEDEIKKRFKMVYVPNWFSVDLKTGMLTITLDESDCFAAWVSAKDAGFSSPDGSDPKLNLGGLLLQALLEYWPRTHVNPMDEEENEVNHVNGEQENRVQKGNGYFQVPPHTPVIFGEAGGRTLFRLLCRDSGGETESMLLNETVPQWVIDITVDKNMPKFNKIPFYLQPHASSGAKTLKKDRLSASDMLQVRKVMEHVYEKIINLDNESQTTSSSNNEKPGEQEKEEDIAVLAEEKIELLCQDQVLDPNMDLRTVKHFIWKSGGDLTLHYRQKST

Question: Which IC50 [1] does the source give for `COc1ncnc(C2CC2)c1-c1ncc2cnn(Cc3ccc(-c4nc(C(F)(F)F)cn4C(C)C)cc3)c2c1F` [Compound 1] here?
Answer: < 20 nM

Question: What about the IC50 [2] of the same compound?
Answer: < 200 nM

Question: And the Oral absorption [3]?
Answer: Yes

Question: For `COc1ncnc(C2CC2)c1-c1ncc2cnn(CC34CCC(c5nc(C(F)(F)F)cn5C(C)C)(CC3)CC4)c2c1F` [Compound 2], which IC50 [1] is on record?
Answer: < 20 nM

Question: What about the “F (%)” value [4] of the same compound?
Answer: 41.2%

Question: And the AUC0-t ([4]; plasma)?
Answer: 6302 ng·h/mL

Question: What about the IC50 [2] of the same compound?
Answer: < 200 nM

Question: And the Oral absorption [3]?
Answer: Yes

Question: Which results are given for `CC(C)n1cc(C(F)(F)F)nc1C12CCC(Cn3ncc4cnc(-c5c(OC(F)F)ncnc5C5CC5)c(F)c43)(CC1)CC2` [Compound 4]?
Answer: IC50 [1]: < 20 nM; IC50 [2]: < 200 nM

Question: With `C#CCn1cc(C(F)(F)F)nc1C12CCC(Cn3ncc4cnc(-c5c(OC)ncnc5C5CC5)c(F)c43)(CC1)CC2` [Compound 8] as the compound, how does the Oral absorption [3] read?
Answer: Yes

Question: For `Fc1c(-c2c(OC(F)F)ncnc2C2CC2)ncc2cnn(CC34CCC(c5nc(C(F)(F)F)cn5CC5CC5)(CC3)CC4)c12` [Compound 10], which IC50 [2, 5] is on record?
Answer: < 200 nM

Question: With `Fc1c(-c2c(OC(F)F)ncnc2C2CC2)ncc2cnn(Cc3ccc(-c4nc(C(F)(F)F)c5n4CC4(CC4)C5)cc3)c12` [Compound 12] as the compound, how does the Oral absorption [3] read?
Answer: Yes

Question: Which Oral absorption [3] does the source give for `Fc1c(-c2c(OC(F)F)ncnc2C2CC2)ncc2cnn(Cc3ccc(-c4nc(C(F)(F)F)c5n4CC(F)(F)C5)cc3)c12` [Compound 14] here?
Answer: Yes

Question: With `[2H]C([2H])([2H])C([2H])(n1cc(C(F)(F)F)nc1C12CCC(Cn3ncc4cnc(-c5c(OC(F)F)ncnc5C5CC5)c(F)c43)(CC1)CC2)C([2H])([2H])[2H]` [Compound 15] as the compound, how does the IC50 [2, 5] read?
Answer: < 200 nM

Question: With `C#CCn1cc(C(F)(F)F)nc1-c1ccc(Cn2ncc3cnc(-c4c(OC)ncnc4C4CC4)c(F)c32)cc1` [Compound 16] as the compound, how does the IC50 [1] read?
Answer: < 20 nM

Question: And the IC50 [2, 5]?
Answer: < 200 nM

Question: What about the Oral absorption [3] of the same compound?
Answer: Yes

Question: With `CC(C)n1cc(C(F)(F)F)nc1-c1ccc(Cn2ncc3cnc(-c4c(OC(F)F)ncnc4C4CC4)c(F)c32)cc1` [Compound 20] as the compound, how does the IC50 [2, 5] read?
Answer: < 200 nM

Question: For `COc1ncnc(C2CC2)c1-c1ncc2cnn(Cc3ccc(-c4nc(C(F)(F)F)c5n4CC4(CC4)C5)cc3)c2c1F` [Compound 21], which Oral absorption [3] is on record?
Answer: Yes

Question: What does the source list for `COc1ncnc(C2CC2)c1-c1ncc2cnn(Cc3ccc(-c4nc(C(F)(F)F)c5n4[C@@H](C)CC5)cc3)c2c1F` [Compound 22]?
Answer: IC50 [2, 5]: < 200 nM; Oral absorption [3]: Yes

Question: Which bioavailability ([4]; male, dog, plasma, po) does the source give for `COc1ncnc(C2CC2)c1-c1ncc2cnn(Cc3ccc(-c4nc(C(F)(F)F)cn4C(C)C)cc3)c2n1` [Control compound A, reference compound] here?
Answer: 15.8%

Question: And the AUC0-t ([4]; male, dog, po, plasma, read-out: AUC0-t)?
Answer: 994 ng·h/mL
